Molecules are shown by their SMILES. pIC50: −log10 of the molar value.

One experiment concerns HeLa. Put plainly: Antiproliferative activity against human HeLa cells measured after 72 hrs by EZ-Cytox assay. It counts as functional, cell-based.
In experiment [1] the target is T1, DNA topoisomerase 1 (Homo sapiens) (UniProt P11387).
T1 sequence (whole entry): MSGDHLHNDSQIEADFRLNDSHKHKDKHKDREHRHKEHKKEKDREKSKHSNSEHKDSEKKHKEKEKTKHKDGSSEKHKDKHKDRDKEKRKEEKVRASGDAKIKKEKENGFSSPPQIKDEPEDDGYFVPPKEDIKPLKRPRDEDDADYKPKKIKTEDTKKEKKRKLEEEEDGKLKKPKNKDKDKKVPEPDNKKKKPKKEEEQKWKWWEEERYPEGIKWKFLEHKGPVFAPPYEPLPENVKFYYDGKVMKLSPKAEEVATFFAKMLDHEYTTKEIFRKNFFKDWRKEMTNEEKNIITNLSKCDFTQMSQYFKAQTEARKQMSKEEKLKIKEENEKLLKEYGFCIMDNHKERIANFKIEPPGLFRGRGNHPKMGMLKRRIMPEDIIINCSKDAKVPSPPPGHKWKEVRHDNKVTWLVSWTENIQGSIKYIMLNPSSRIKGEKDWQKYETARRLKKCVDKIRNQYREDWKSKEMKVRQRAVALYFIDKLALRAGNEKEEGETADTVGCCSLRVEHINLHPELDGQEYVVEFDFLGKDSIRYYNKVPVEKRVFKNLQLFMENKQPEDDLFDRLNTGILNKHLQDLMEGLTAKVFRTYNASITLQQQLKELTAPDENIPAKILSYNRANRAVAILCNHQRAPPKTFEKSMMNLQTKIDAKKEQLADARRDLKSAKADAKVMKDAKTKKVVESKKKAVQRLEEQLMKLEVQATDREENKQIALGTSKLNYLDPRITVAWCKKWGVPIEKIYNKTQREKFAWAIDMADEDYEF
Put plainly: Inhibition of recombinant human topoisomerase 1-mediated relaxation of supercoiled pBR322 DNA at 100 uM measured after 30 mins by ethidium bromide staining based agarose gel electrophoresis relative to control.

A further experiment has as its system T47D. Put plainly: Antiproliferative activity against human T47D cells measured after 72 hrs by EZ-Cytox assay. It counts as functional, cell-based.
A further experiment has as its system HCT-15. Kind of experiment: Antiproliferative activity against human HCT15 cells measured after 72 hrs by EZ-Cytox assay. To be noted: HCT-15, 72 h. The class given is functional, cell-based.
The target in experiment [2] is DNA topoisomerase 2-alpha (Homo sapiens) (UniProt P11388). Kind of experiment: Inhibition of recombinant human topoisomerase 2alpha-mediated relaxation of supercoiled pBR322 DNA at 100 uM measured after 30 mins by ethidium bromide staining based agarose gel electrophoresis relative to control.
Sequence of DNA topoisomerase 2-alpha (Homo sapiens) (P11388 whole entry): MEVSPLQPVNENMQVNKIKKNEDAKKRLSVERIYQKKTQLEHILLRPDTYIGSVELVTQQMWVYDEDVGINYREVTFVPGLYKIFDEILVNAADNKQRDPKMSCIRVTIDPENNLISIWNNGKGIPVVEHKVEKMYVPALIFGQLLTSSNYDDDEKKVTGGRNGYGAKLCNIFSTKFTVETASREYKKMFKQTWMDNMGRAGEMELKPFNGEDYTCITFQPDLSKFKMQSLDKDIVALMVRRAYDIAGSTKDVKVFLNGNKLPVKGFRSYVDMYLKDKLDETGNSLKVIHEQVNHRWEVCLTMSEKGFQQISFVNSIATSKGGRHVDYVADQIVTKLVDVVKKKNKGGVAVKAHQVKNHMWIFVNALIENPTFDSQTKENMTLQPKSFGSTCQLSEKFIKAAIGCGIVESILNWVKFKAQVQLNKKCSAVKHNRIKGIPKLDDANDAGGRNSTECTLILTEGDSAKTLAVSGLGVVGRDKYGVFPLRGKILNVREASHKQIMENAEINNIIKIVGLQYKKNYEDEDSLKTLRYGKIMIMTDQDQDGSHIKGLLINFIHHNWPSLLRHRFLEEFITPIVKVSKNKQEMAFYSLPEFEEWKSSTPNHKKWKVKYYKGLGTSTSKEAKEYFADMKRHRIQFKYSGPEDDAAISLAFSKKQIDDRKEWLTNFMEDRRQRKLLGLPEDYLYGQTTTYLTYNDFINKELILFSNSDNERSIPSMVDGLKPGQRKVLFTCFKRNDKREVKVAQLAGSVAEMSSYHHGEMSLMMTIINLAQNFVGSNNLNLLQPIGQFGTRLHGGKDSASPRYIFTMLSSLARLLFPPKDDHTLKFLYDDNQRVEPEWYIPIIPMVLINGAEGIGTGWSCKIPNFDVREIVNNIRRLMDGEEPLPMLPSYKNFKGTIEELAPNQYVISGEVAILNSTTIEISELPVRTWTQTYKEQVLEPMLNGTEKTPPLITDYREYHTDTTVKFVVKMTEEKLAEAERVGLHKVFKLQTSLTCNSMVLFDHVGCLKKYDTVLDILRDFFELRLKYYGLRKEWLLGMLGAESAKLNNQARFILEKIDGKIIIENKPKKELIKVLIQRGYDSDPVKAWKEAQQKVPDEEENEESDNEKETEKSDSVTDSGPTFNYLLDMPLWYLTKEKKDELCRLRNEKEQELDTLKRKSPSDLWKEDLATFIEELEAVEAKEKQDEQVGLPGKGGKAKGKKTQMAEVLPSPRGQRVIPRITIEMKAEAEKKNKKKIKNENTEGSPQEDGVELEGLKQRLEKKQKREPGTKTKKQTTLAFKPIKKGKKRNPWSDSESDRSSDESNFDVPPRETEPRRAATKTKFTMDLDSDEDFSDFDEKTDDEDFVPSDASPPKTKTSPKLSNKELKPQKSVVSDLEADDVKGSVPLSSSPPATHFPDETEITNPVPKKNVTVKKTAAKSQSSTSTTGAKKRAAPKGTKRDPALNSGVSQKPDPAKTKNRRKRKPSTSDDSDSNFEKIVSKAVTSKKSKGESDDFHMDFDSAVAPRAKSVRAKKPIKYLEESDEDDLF
The next experiment relates to DU-145. Kind of experiment: Antiproliferative activity against human DU145 cells measured after 72 hrs by EZ-Cytox assay. The class given is functional, cell-based. The conditions noted are these: DU-145, 72 h.

Take `Oc1cccc(-c2cc(-c3ccc(C(F)(F)F)cc3)nc3c2Cc2c(O)cccc2-3)c1`: the pIC50 (in general, the IC50 on a negative log10 scale, so that one unit is a factor of ten) in the experiment with HeLa is 5.20; in the experiment with T47D, 5.21; with HCT-15 it was 5.16; in the experiment on DU-145 it was 5.30. Besides, the results for the inhibition in experiment [1] and in experiment [2] were 0.7% and 10.9%, respectively.
As for `Oc1ccc(-c2cc(-c3ccccc3F)nc3c2Cc2ccc(O)cc2-3)cc1`, the pIC50 in the experiment on HeLa is under 4.30; with T47D, 4.53; in the experiment with HCT-15 it was under 4.30; in the experiment on DU-145, 4.85. Moreover, the inhibition – broadly, the drop in the measured response relative to a control, in per cent – in experiment [1] turned out to be 3.3%; in experiment [2], 6.4%.
Take `Oc1ccc(-c2cc(-c3ccc(F)cc3)nc3c2Cc2cc(O)ccc2-3)cc1`: the pIC50 was 5.42 with HeLa, 5.73 with T47D, 5.36 in the experiment with HCT-15 and 5.80 in the experiment with DU-145. Besides, the results for the inhibition in experiment [1] and in experiment [2] were 8% and 17.1%, respectively.
For `Oc1ccccc1-c1cc(-c2cccc(F)c2)nc2c1Cc1cccc(O)c1-2`, the pIC50 is 5.10 in the experiment with HeLa, 6.13 in the experiment on T47D, 5.30 in the experiment on HCT-15 and 5.00 in the experiment on DU-145. Further, the inhibition in experiment [1] is 0%; in experiment [2] it was 8.4%.
As for `Oc1ccccc1-c1cc(-c2ccccc2F)nc2c1Cc1c(O)cccc1-2`, the pIC50 with HeLa was 5.38; with T47D it was 5.75; in the experiment with HCT-15, 5.47; in the experiment with DU-145 it was 5.57. Besides, the inhibition in experiment [1] was found to be 0%; in experiment [2] it was 24.1%.
Consider `Oc1cccc(-c2cc(-c3cccc(F)c3)nc3c2Cc2cccc(O)c2-3)c1`, for which the pIC50 in the experiment with HeLa was 4.82; in the experiment with T47D, 5.94; in the experiment on HCT-15, under 4.30; with DU-145, 6.03. The inhibition in experiment [1] stood at 14%; in experiment [2] it was 17.8%.
Turning to `Oc1ccc2c(c1)-c1nc(-c3ccccc3O)cc(-c3ccccc3)c1C2`, the negative-log IC50 (pIC50) with HeLa was under 4.30; in the experiment on T47D, under 4.30; in the experiment with HCT-15, under 4.30; with DU-145, 5.73. Moreover, the inhibition turned out to be 0% in experiment [1] and 2.8% in experiment [2].
In the case of `Oc1ccc(-c2cc(-c3cccc(F)c3)nc3c2Cc2c(O)cccc2-3)cc1`, the pIC50 with HeLa was 5.14; in the experiment with T47D it was 6.24; with HCT-15, 5.32; in the experiment on DU-145, 5.69. The inhibition in experiment [1] was found to be 8.6%; in experiment [2] it was 0.7%.
Regarding `Oc1ccc2c(c1)Cc1c(-c3ccccc3O)cc(-c3cccc(F)c3)nc1-2`, the pIC50 in the experiment with HeLa is 5.61; with T47D, 6.07; in the experiment on HCT-15 it was 5.37; in the experiment on DU-145, 5.50. Further, the inhibition is 0% in experiment [1] and 28% in experiment [2].
Regarding `Oc1ccc(-c2cc(-c3ccccc3)nc3c2Cc2cccc(O)c2-3)cc1`, the pIC50 in the experiment with HeLa was under 4.30; in the experiment on T47D, under 4.30; in the experiment with HCT-15 it was under 4.30; in the experiment on DU-145, 5.38. For the same compound, the inhibition was determined as 10.2% in experiment [1] and 4% in experiment [2].
On to `Oc1cccc(-c2cc(-c3ccccc3F)nc3c2Cc2ccc(O)cc2-3)c1`, for which the negative logarithm of the IC50 (pIC50) in the experiment on HeLa was 5.43; with T47D, 5.53; with HCT-15, 5.53; with DU-145, 6.40. For the same compound, the values for the inhibition in experiment [1] and in experiment [2] were 16.3% and 28.1%, respectively.
Take `Oc1cccc(-c2cc(-c3ccccc3F)nc3c2Cc2c(O)cccc2-3)c1`: the pIC50 in the experiment with HeLa was 5.17; in the experiment with T47D it was 5.57; in the experiment on HCT-15 it was 5.30; with DU-145, 5.69. The inhibition in experiment [1] turned out to be 9.7%; in experiment [2], 22.4%.
In the case of `Oc1ccc(-c2cc(-c3ccccc3F)nc3c2Cc2cc(O)ccc2-3)cc1`, the negative logarithm of the IC50 (pIC50) with HeLa was 5.32; with T47D, 5.86; in the experiment on HCT-15, 5.52; in the experiment on DU-145, 5.90. In addition, the inhibition in experiment [1] came out at 12.2%; in experiment [2], 10.6%.
Turning to `Oc1ccc(-c2cc(-c3ccccc3F)nc3c2Cc2c(O)cccc2-3)cc1`, the pIC50 in the experiment on HeLa was 5.21; with T47D, 6.06; in the experiment with HCT-15, 5.55; in the experiment with DU-145, 5.74. Also, the inhibition is 5.4% in experiment [1] and 15.3% in experiment [2].
`Oc1ccc(-c2cc(-c3ccccc3C(F)(F)F)nc3c2Cc2cccc(O)c2-3)cc1`: the pIC50 is under 4.30 in the experiment with HeLa, 5.84 in the experiment with T47D, under 4.30 in the experiment with HCT-15 and under 4.30 in the experiment on DU-145. In addition, the values for the inhibition in experiment [1] and in experiment [2] were 3% and 2.9%, respectively.
As to `Oc1ccc2c(c1)-c1nc(-c3ccccc3F)cc(-c3ccccc3O)c1C2`, the pIC50 with HeLa was 5.36; with T47D it was 6.21; in the experiment with HCT-15, 5.53; in the experiment with DU-145, 5.39. Also, the inhibition in experiment [1] was 0%; in experiment [2], 27%.
For the compound `Oc1ccccc1-c1cc(-c2ccccc2)c2c(n1)-c1c(O)cccc1C2`, the pIC50 was under 4.30 with HeLa, under 4.30 in the experiment on T47D, under 4.30 with HCT-15 and 5.02 in the experiment on DU-145. Moreover, the inhibition in experiment [1] was determined as 1%; in experiment [2], 1.2%.
Consider `Oc1ccc2c(c1)Cc1c(-c3ccccc3O)cc(-c3ccccc3F)nc1-2`, for which the pIC50 in the experiment with HeLa is 5.31; with T47D, 6.15; in the experiment with HCT-15, 5.47; in the experiment on DU-145, 5.42. Further, the inhibition in experiment [1] came to 0%; in experiment [2], 13.4%.
`Oc1cccc(-c2cc(-c3ccccc3)nc3c2Cc2ccc(O)cc2-3)c1`: the pIC50 in the experiment on HeLa is 5.86; with T47D it was 6.08; with HCT-15, 5.86; in the experiment on DU-145, 5.80. The inhibition in experiment [1] was 0.5%; in experiment [2] it was 1.2%.
In the case of `Oc1ccc2c(c1)-c1nc(-c3ccc(F)cc3)cc(-c3ccccc3O)c1C2`, the pIC50 is 5.36 in the experiment with HeLa, 6.72 in the experiment with T47D, 5.50 with HCT-15 and 5.46 with DU-145. Also, the values for the inhibition in experiment [1] and in experiment [2] were 0% and 23.3%, respectively.
With `Oc1cccc(-c2cc(-c3ccccc3)c3c(n2)-c2cc(O)ccc2C3)c1`, the pIC50 in the experiment with HeLa was under 4.30; in the experiment with T47D, under 4.30; in the experiment on HCT-15, under 4.30; in the experiment with DU-145, 6.38. The inhibition in experiment [1] was determined as 0%; in experiment [2], 3.5%.
For `Oc1cccc(-c2cc(-c3ccccc3)nc3c2Cc2cccc(O)c2-3)c1`, the pIC50 in the experiment with HeLa is 5.69; in the experiment on T47D, 5.70; in the experiment on HCT-15 it was 5.83; in the experiment with DU-145, 6.14. The values for the inhibition in experiment [1] and in experiment [2] were 1.6% and 6.3%, respectively.
In the case of `Oc1ccc(-c2cc(-c3cccc(F)c3)nc3c2Cc2ccc(O)cc2-3)cc1`, the pIC50 in the experiment on HeLa is 5.06; in the experiment on T47D it was 6.15; with HCT-15, 5.35; with DU-145, 5.32. In addition, the values for the inhibition in experiment [1] and in experiment [2] were 3% and 6.2%, respectively.
For the compound `Oc1cccc(-c2cc(-c3ccccc3)c3c(n2)-c2c(O)cccc2C3)c1`, the pIC50 with HeLa is under 4.30; in the experiment with T47D, 5.43; in the experiment with HCT-15, under 4.30; in the experiment with DU-145, 6.37. For the same compound, the inhibition in experiment [1] and in experiment [2] was 0% in each case.
In the case of `Oc1ccc(-c2cc(-c3ccccc3)nc3c2Cc2c(O)cccc2-3)cc1`, the pIC50 with HeLa is 5.71; in the experiment with T47D, 5.54; with HCT-15, 5.56; in the experiment on DU-145 it was 5.89. Also, the inhibition in experiment [1] worked out at 4.4%; in experiment [2], 1.5%.
For the compound `Oc1cccc(-c2cc(-c3ccccc3F)nc3c2Cc2cccc(O)c2-3)c1`, the pIC50 with HeLa is 4.92; with T47D it was 6.08; in the experiment with HCT-15 it was 5.08; in the experiment on DU-145, 5.73. For the same compound, the inhibition in experiment [1] was determined as 4%; in experiment [2], 8.7%.
In the case of `Oc1ccc(-c2cc(-c3ccccc3)c3c(n2)-c2cccc(O)c2C3)cc1`, the pIC50 in the experiment with HeLa is 5.24; with T47D it was 5.21; in the experiment on HCT-15 it was 5.99; in the experiment on DU-145, 6.43. Besides, the inhibition in experiment [1] is 5.3%; in experiment [2] it was 4.4%.
For `Oc1ccc(-c2cc(-c3ccccc3)c3c(n2)-c2c(O)cccc2C3)cc1`, the pIC50 is 5.69 in the experiment with HeLa, 4.94 in the experiment with T47D, under 4.30 with HCT-15 and 6.18 with DU-145. Also, the inhibition in experiment [1] is 1.1%; in experiment [2], 3.7%.
